Results from PubChem BioAssay (NCI).
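These data come from cells grown in 96-well plates and exposed to compound for 48 hours at five concentrations. At the GI50, growth is halved. TGI: concentration producing complete growth inhibition.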

What was measured:
Test in all cases: inhibition of tumour cell growth, NCI panel, 48 h
[1] = system: NCI-H23 lung
[2] = system: HS 578T breast
[3] = system: K-562 leukemia
[4] = system: HOP-92 NSCLC
[5] = system: HCC-2998 colon
[6] = system: SK-OV-3 ovarian
[7] = system: NCI-H226 lung
[8] = system: IGROV1 ovarian
[9] = system: M14 melanoma
[10] = system: HCT-116 colon

Compound | TGI [1] | TGI [2] | TGI [3] | TGI [4] | TGI [5] | TGI [6] | TGI [7] | TGI [8] | TGI [9] | TGI [10] | GI50 [1] | GI50 [2] | GI50 [3] | GI50 [4] | GI50 [5] | GI50 [6] | GI50 [8] | GI50 [9] | GI50 [10] | GI50 [7]
C=C1C(=O)OC2C1C(OC(=O)/C(C)=C/C)CC(O)(CCl)C1C(O)C=C(C)C21O (centres undefined) | 28.3 µM | > 100 µM | > 100 µM | 24.4 µM | 25.6 µM | > 100 µM | 46.5 µM | 31.6 µM | 23.8 µM | 18.9 µM | – | – | – | – | – | – | – | – | – | –
O=C1/C=C/[C@@H](O)[C@@H]2C[C@@H](O)C[C@H]2/C=C/CCC[C@H](CCc2ccc3ncccc3c2)O1 | 1.18 µM | > 100 µM | > 100 µM | > 100 µM | 4.99 µM | > 32.1 µM | – | > 34 µM | 18.3 µM | 0.693 µM | 0.219 µM | 1.23 µM | 0.386 µM | 2.77 µM | 0.252 µM | 0.336 µM | 0.394 µM | 0.327 µM | 0.245 µM | –
O=C1Nc2cc(-c3cccc(O)c3)ccc2/C1=C/c1ccc[nH]1 | 4.56 µM | 5.73 µM | > 100 µM | 6.26 µM | 11.8 µM | 5.22 µM | 11.4 µM | 10.1 µM | 3.54 µM | 3.44 µM | 0.182 µM | 1.51 µM | 0.355 µM | 1.9 µM | 2.03 µM | 0.655 µM | 1.01 µM | 1.68 µM | 1.32 µM | 2.79 µM
CCCCCCCCCCCCCCCCCCNCc1ccc(Cl)cc1 | 12 µM | 30.4 µM | – | 5.45 µM | 18.9 µM | 16.9 µM | 19.2 µM | 5.24 µM | 7.04 µM | 11.7 µM | 3.07 µM | 7.97 µM | – | 1.83 µM | 4.58 µM | 4.02 µM | 1.91 µM | 2.28 µM | 3.03 µM | 3.7 µM
Nc1ccccc1C#C/C=C\C#CC#C/C=C\C#Cc1ccccc1N | 23.3 µM | 56.7 µM | > 100 µM | 8.35 µM | 8.03 µM | > 100 µM | 27.2 µM | 17.9 µM | – | 15.9 µM | 5.17 µM | 12.4 µM | 0.781 µM | 1.77 µM | 2.25 µM | 22.8 µM | 2.21 µM | – | 3.84 µM | 3.56 µM
C[N+](C)(C)CC1CCC(C[N+](C)(C)C)C1=O (centres undefined) | 8.27 µM | 91.5 µM | 1.34 µM | 2.28 µM | 22.5 µM | 42 µM | 23.3 µM | 13.6 µM | 3.35 µM | 3.44 µM | – | – | – | – | – | – | – | – | – | –
C/C=C/C/C=C/[C@H](C)C[C@H](O)[C@@H]1C[C@@H]2O[C@H]2/C=C/[C@@H]2OC(C)(C)O[C@H]2/C=C/C[C@H](C)CC(=O)O1 | > 100 µM | > 100 µM | > 100 µM | 91.6 µM | > 100 µM | > 100 µM | > 100 µM | > 100 µM | > 100 µM | > 100 µM | 6.08 µM | 5.22 µM | 4.79 µM | 6.71 µM | > 100 µM | 24.5 µM | 10.5 µM | 12.9 µM | 8.85 µM | 6.08 µM
